Assay results as given in patent US10519134B2, “Pyrazole compounds and methods of making and using same” (Lundbeck La Jolla Research Center, Inc., priority 2015, dated 2019).

Key:
MAGL [1] = target: T1, MAGL (Mus musculus, UniProt O35678); assay: Mouse brain proteomes from inhibitor treated mice (oral gavage, sacrificed 4 h after administration); type: in vivo; conditions: read-out: MAGL % inh. 5 mg/kg
T1 construct: Proteomes (mouse brain membrane fraction or cell lysates); from tissue; host or cells: mouse brain membrane fraction (or cell lysates)
T1 sequence (O35678 1-303): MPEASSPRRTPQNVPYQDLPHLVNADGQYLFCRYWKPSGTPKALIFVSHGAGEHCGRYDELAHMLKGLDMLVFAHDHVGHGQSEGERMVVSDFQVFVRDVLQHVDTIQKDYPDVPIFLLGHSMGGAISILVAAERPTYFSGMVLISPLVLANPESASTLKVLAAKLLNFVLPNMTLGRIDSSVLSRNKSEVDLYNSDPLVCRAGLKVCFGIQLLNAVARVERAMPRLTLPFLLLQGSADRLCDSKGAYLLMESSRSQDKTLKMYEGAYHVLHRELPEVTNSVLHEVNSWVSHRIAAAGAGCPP
Protocol: Compounds are tested to assess their MAGL and other serine hydrolase activity using the following in vitro and in vivo assays.
Preparation of Mouse Brain Proteomes from Inhibitor Treated Mice.
Inhibitors were administered to wild-type C57Bl/6J by oral gavage in a vehicle of polyethylene glycol. Each animal was sacrificed 4 h following administration and brain proteomes were prepared and analyzed according to previously established methods (See Niphakis, M. J., et al. (2011) ACS Chem. Neurosci. and Long, J. Z., et al. Nat. Chem. Biol. 5:37-44)

FAAH = target: T2, FAAH (Mus musculus, UniProt O08914); assay: In vitro competitive activity-based protein profiling (mouse), FAAH gel band; type: biochemical; conditions: for IC50: mouse; for inhibition at 1 µM: read-out: FAAH % inh. 1 μM
T2 construct: Proteomes (mouse brain membrane fraction or cell lysates); from tissue; host or cells: mouse brain membrane fraction (or cell lysates)
T2 sequence (O08914 1-579): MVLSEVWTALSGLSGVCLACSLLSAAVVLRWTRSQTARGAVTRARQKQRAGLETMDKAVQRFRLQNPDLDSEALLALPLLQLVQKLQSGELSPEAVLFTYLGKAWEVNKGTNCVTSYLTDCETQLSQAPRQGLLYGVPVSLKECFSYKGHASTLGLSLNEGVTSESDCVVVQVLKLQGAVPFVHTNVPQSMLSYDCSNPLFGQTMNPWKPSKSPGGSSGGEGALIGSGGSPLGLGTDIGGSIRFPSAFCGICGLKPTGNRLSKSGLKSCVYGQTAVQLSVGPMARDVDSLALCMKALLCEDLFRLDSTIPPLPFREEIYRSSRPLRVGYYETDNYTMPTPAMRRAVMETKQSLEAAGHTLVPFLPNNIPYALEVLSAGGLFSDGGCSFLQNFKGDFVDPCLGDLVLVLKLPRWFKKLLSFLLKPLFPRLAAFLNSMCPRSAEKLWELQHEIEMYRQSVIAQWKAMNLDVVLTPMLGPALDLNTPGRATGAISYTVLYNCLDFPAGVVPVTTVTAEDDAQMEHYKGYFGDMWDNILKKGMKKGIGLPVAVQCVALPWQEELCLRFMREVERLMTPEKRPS
How it was run: (§1)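 Competitive ABPP: inhibitors at varying concentrations were given 30 min at 37 °C with mouse brain membranes or cell lysates (1.0 mg/mL total protein) before 30 min labelling by FP-Rh or HT-01 (stock 50 μM in DMSO). Residual hydrolase activity read as in-gel fluorescence of MAGL and FAAH bands.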

MAGL [2] = target: T1, MAGL; assay: In vitro competitive activity-based protein profiling (mouse), MAGL gel band; type: biochemical; conditions: for IC50: mouse; for inhibition at 1 µM: read-out: MAGL % inh. 1 μM
How it was run: as §1

| inhibition at 5 mg/kg (MAGL [1]) | IC50 (FAAH) | inhibition at 1 µM (FAAH) | IC50 (MAGL [2]) | inhibition at 1 µM (MAGL [2]) | SMILES |
| --- | --- | --- | --- | --- | --- |
| 0 to 25% | 1000 to 10000 nM | 0 to 25% | ≤ 100 nM | ≥ 75% | CC(=O)Nc1ccn(C(=O)N2CCN(Cc3ccc(Cl)cc3N3CC4COCC4C3)CC2)n1 (stereo not shown) [Example 60, N-(1-(4-(4-chloro-2-(dihydro-1H-furo[3,4-c]pyrrol-5(3H,6H,6aH)-yl)benzyl)piperazine-1-carbonyl)-1H-pyrazol-3-yl)acetamide] |
| 25 to 50% | 1000 to 10000 nM | 0 to 25% | ≤ 100 nM | ≥ 75% | CC(=O)Nc1ccn(C(=O)N2CCC3(CCCN3Cc3ccc(Cl)cc3N3CCCCC3)CC2)n1 [Example 33, N-(1-(1-(4-chloro-2-(piperidin-1-yl)benzyl)-1,8-diazaspiro[4.5]decane-8-carbonyl)-1H-pyrazol-3-yl)acetamide] |
| ≥ 75% | 1000 to 10000 nM | 0 to 25% | ≤ 100 nM | ≥ 75% | CC(=O)Nc1ccn(C(=O)N2CCN(Cc3ccc(C(F)(F)F)cc3N3CCCCC3)CC2)n1 [Example 39, N-(1-(4-(2-(piperidin-1-yl)-4-(trifluoromethyl)benzyl)piperazine-1-carbonyl)-1H-pyrazol-3-yl)acetamide] |
| 0 to 25% | 1000 to 10000 nM | 0 to 25% | 1000 to 10000 nM | ≥ 75% | CC(=O)Nc1ccn(C(=O)N2CCN(Cc3cccc(C(F)(F)F)c3-c3nnn[nH]3)CC2)n1 [Example 223, N-(1-(4-(2-(1H-tetrazol-5-yl)-3-(trifluoromethyl)benzyl)piperazine-1-carbonyl)-1H-pyrazol-3-yl)acetamide] |
| 25 to 50% | 1000 to 10000 nM | 0 to 25% | ≤ 100 nM | ≥ 75% | CC(=O)Nc1ccn(C(=O)N2CCN(Cc3ccc(Cl)cc3N3CCC4(CCOCC4)C3)CC2)n1 [Example 56, N-(1-(4-(4-chloro-2-(8-oxa-2-azaspiro[4.5]decan-2-yl)benzyl)piperazine-1-carbonyl)-1H-pyrazol-3-yl)acetamide] |
| 0 to 25% | 1000 to 10000 nM | 0 to 25% | ≤ 100 nM | ≥ 75% | CC(=O)Nc1ccn(C(=O)N2CCC3(CCCN3Cc3cc(OC4CCN(C5CC5)CC4)cc(C(F)(F)F)c3)CC2)n1 [Example 82, N-(1-(1-(3-(1-cyclopropylpiperidin-4-yloxy)-5-(trifluoromethyl)benzyl)-1,8-diazaspiro[4.5]decane-8-carbonyl)-1H-pyrazol-3-yl)acetamide] |
| 0 to 25% | 1000 to 10000 nM | 0 to 25% | 100 to 1000 nM | ≥ 75% | CC(=O)Nc1ccn(C(=O)N2CCC3(CCCN3Cc3ccc(C(F)(F)F)c(C(N)=O)c3)CC2)n1 [Example 107, 5-((8-(3-acetamido-1H-pyrazole-1-carbonyl)-1,8-diazaspiro[4.5]decan-1-yl)methyl)-2-(trifluoromethyl)benzamide] |
| 0 to 25% | 1000 to 10000 nM | 0 to 25% | ≤ 100 nM | ≥ 75% | CC(=O)Nc1ccn(C(=O)N2CCN(Cc3ccc(Cl)cc3N3CCC(C(=O)O)CC3)CC2)n1 [Example 248, 1-(2-((4-(3-acetamido-1H-pyrazole-1-carbonyl)piperazin-1-yl)methyl)-5-chlorophenyl) piperidine-4-carboxylic acid] |
| ≥ 75% | – | 0 to 25% | – | ≥ 75% | [2H]C([2H])([2H])C(=O)Nc1ccn(C(=O)N2CCC3(CCCN3Cc3ccc(Cl)c(C)c3)CC2)n1 [Example 286, N-(1-(1-(4-chloro-3-methylbenzyl)-1,8-diazaspiro[4.5]decane-8-carbonyl)-1H-pyrazol-3-yl)acetamide-2,2,2-d3] |
| 0 to 25% | 1000 to 10000 nM | 0 to 25% | ≤ 100 nM | ≥ 75% | CC(=O)Nc1ccn(C(=O)N2CCN(Cc3ccc(C(F)(F)F)cc3N3CC4COCC4C3)CC2)n1 (stereo not shown) [Example 49, N-(1-(4-(2-(dihydro-1H-furo[3,4-c]pyrrol-5(3H,6H,6aH)-yl)-4-(trifluoromethyl)benzyl)piperazine-1-carbonyl)-1H-pyrazol-3-yl)acetamide] |
| ≥ 75% | 1000 to 10000 nM | 0 to 25% | ≤ 100 nM | ≥ 75% | CC(=O)Nc1ccn(C(=O)N2CCN(Cc3ccc(Cl)cc3N3CCCCC3)CC2)n1 [Example 50, N-(1-(4-(4-chloro-2-(piperidin-1-yl)benzyl)piperazine-1-carbonyl)-1H-pyrazol-3-yl)acetamide] |
| 0 to 25% | 1000 to 10000 nM | 0 to 25% | ≤ 100 nM | ≥ 75% | CC(=O)Nc1ccn(C(=O)N2CCC3(CCCN3Cc3ccc(Cl)c(N4CCOCC4)c3)CC2)n1 [Example 103, N-(1-(1-(4-chloro-3-morpholinobenzyl)-1,8-diazaspiro[4.5]decane-8-carbonyl)-1H-pyrazol-3-yl)acetamide] |
| 25 to 50% | 1000 to 10000 nM | 0 to 25% | ≤ 100 nM | ≥ 75% | Cc1ccc(CN2CCN(C(=O)n3ccc(NS(C)(=O)=O)n3)CC2)c(N2CC3CCC(C2)O3)c1 [Example 146, N-(1-(4-(2-(8-oxa-3-azabicyclo[3.2.1]octan-3-yl)-4-methylbenzyl)piperazine-1-carbonyl)-1H-pyrazol-3-yl) methanesulfonamide] |
| – | – | 0 to 25% | – | 0 to 25% | CS(=O)(=O)Nc1ccn(C(=O)N2CCN(Cc3ccc(Cl)c(-c4nnn[nH]4)c3)CC2)n1 [Example 214, N-(1-(4-(4-chloro-3-(1H-tetrazol-5-yl)benzyl)piperazine-1-carbonyl)-1H-pyrazol-3-yl) methanesulfonamide] |
| – | – | 0 to 25% | – | ≥ 75% | Cc1cc(CN2CCCC23CCN(C(=O)n2ccc(NC(=O)C(F)(F)F)n2)CC3)ccc1Cl [Example 117, N-(1-(1-(4-chloro-3-methylbenzyl)-1,8-diazaspiro[4.5]decane-8-carbonyl)-1H-pyrazol-3-yl)-2,2,2-trifluoroacetamide] |
| – | – | 0 to 25% | – | 0 to 25% | CN1CCN(c2c(Cl)cccc2CN2CCN(C(=O)n3ccc(NS(C)(=O)=O)n3)CC2)CC1 [Example 225, N-(1-(4-(3-chloro-2-(4-methylpiperazin-1-yl)benzyl)piperazine-1-carbonyl)-1H-pyrazol-3-yl) methanesulfonamide] |
| – | – | 0 to 25% | – | ≥ 75% | CS(=O)(=O)Nc1ccn(C(=O)N2CCN(Cc3ccc(Cl)c(-c4cnccn4)c3)CC2)n1 [Example 283, N-(1-(4-(4-chloro-3-(pyrazin-2-yl)benzyl)piperazine-1-carbonyl)-1H-pyrazol-3-yl) methanesulfonamide] |
| – | 1000 to 10000 nM | 0 to 25% | ≤ 100 nM | ≥ 75% | CC(=O)Nc1ccn(C(=O)N2CCC3(CCCN3Cc3ccc(Cl)cc3N3CC4COCC4C3)CC2)n1 (stereo not shown) [Example 17, N-(1-(1-(4-chloro-2-(dihydro-1H-furo[3,4-c]pyrrol-5(3H,6H,6aH)-yl)benzyl)-1,8-diazaspiro[4.5]decane-8-carbonyl)-1H-pyrazol-3-yl)acetamide] |
| – | – | 0 to 25% | – | 0 to 25% | CS(=O)(=O)Nc1ccn(C(=O)N2CCC3(CCCN3Cc3ccc(C(F)(F)F)cc3N3CCC(C(=O)O)CC3)CC2)n1 [Example 243, 1-(2-((8-(3-(methylsulfonamido)-1H-pyrazole-1-carbonyl)-1,8-diazaspiro[4.5]decan-1-yl)methyl)-5-(trifluoromethyl)phenyl)piperidine-4-carboxylic acid] |
| – | – | 25 to 50% | – | ≥ 75% | CC(=O)Nc1ccn(C(=O)N2CCC3(CCCN3Cc3cc(Cl)cc(N4CC5CN(C(C)=O)CC5C4)c3)CC2)n1 (stereo not shown) [Example 65, N-(1-(1-(3-(5-acetylhexahydropyrrolo[3,4-c]pyrrol-2(1H)-yl)-5-chlorobenzyl)-1,8-diazaspiro[4.5]decane-8-carbonyl)-1H-pyrazol-3-yl)acetamide] |
